Each compound was assayed against human Nav1.7 (Homo sapiens, UniProt Q15858) (assay: FLIPR sodium dye assay (CoroNa Green AM Na+ dye, primary fluorescence assay) in recombinant Nav1.7/HEK293 cells). Conditions: Table 6; CoroNa Green AM Na+ dye primary fluorescence assay; read-out: Nav1.7 Activity (μM) FLIPR assay IC50.
Type: cell-based

human Nav1.7, sequence (Q15858 1-1977 isoform Q15858-3): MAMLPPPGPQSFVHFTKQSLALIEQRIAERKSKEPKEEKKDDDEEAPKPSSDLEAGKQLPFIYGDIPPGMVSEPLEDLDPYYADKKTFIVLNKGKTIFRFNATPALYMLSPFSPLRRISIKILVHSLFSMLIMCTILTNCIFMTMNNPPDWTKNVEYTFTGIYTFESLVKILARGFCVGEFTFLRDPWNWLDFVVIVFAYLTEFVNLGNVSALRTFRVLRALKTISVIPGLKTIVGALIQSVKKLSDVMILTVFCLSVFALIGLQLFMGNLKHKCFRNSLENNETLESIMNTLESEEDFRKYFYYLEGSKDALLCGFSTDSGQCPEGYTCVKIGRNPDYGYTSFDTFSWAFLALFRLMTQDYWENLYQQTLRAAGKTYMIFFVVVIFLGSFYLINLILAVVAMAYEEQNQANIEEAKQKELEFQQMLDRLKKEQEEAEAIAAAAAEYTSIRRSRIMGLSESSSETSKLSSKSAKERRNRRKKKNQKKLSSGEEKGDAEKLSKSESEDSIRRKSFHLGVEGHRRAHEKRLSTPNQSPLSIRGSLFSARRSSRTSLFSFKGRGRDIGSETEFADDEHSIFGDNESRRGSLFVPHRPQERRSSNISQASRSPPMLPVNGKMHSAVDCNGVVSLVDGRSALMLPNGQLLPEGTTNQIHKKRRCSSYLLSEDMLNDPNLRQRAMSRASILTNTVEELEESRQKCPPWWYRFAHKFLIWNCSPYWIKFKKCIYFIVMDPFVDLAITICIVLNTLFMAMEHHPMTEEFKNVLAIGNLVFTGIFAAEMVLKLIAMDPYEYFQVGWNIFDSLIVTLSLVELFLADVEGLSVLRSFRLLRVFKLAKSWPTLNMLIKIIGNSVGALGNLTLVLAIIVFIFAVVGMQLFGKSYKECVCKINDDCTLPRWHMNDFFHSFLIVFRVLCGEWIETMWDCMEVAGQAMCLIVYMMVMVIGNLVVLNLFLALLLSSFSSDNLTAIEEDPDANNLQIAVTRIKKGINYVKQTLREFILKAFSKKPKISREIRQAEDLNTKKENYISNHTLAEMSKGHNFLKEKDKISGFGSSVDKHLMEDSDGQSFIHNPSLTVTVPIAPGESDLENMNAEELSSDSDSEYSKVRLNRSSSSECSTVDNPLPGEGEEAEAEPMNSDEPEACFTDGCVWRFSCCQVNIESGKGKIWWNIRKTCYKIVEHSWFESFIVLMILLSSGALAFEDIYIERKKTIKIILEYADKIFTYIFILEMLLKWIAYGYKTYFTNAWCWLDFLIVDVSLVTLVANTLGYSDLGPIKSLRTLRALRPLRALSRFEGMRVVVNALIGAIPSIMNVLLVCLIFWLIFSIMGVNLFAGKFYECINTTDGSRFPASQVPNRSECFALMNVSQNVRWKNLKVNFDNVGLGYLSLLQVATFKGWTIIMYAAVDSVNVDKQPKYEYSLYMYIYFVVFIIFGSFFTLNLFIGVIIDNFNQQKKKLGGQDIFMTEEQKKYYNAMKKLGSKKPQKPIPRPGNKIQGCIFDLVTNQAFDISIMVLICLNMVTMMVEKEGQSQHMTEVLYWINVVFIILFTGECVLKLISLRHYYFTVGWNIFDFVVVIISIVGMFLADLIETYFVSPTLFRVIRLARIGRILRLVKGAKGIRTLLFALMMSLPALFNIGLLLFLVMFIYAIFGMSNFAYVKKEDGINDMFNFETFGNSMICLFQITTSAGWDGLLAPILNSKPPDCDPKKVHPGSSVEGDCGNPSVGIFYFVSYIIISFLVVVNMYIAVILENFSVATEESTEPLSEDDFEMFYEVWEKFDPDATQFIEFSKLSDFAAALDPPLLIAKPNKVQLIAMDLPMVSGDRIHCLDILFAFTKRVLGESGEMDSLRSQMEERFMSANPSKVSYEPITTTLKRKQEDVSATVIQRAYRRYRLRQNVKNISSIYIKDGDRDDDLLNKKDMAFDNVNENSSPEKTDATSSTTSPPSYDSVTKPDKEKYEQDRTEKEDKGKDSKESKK

Structure (SMILES)	IC50 [µM]
COc1ccc(CNc2cc(C(N)=O)nc(-c3ccc(Oc4ccc(F)cc4)cc3)n2)c(OC)c1 [Cpd No. 178, 6-((2,4-dimethoxybenzyl)amino)-2-(4-(4-fluorophenoxy)phenyl)-pyrimidine-4-carboxamide]	1.74
NC(=O)c1cc(NCc2ncc[nH]2)nc(-c2ccc(Oc3ccc(F)cc3)cc2)n1 [Cpd No. 179, 6-(((1H-imidazol-2-yl)methyl)amino)-2-(4-(4-fluorophenoxy)phenyl)-pyrimidine-4-carboxamide]	> 20
Cn1ccnc1CNc1cc(C(N)=O)nc(-c2ccc(Oc3ccc(F)cc3)cc2)n1 [Cpd No. 180, 2-(4-(4-fluorophenoxy)phenyl)-6-(((1-methyl-1H-imidazol-2-yl)methyl)-amino)pyrimidine-4-carboxamide]	0.14
NC(=O)c1cc(N[C@H]2CCNC2=O)nc(N2[C@@H]3CC[C@H]2C[C@H](Oc2ccc(F)cc2Cl)C3)n1 [Cpd No. 182, 2-((1R,3R,5S)-3-(2-chloro-4-fluorophenoxy)-8-azabicyclo[3.2.1]octan-8-yl)-6-(((S)-2-oxopyrrolidin-3-yl)amino)pyrimidine-4-carboxamide]	0.35
C[C@H](Oc1cc(C(N)=O)nc(-c2ccc(Oc3ccc(C(F)(F)F)cc3CN3CCCC3)cc2)n1)C(=O)O [Cpd No. 184, (S)-2-((6-carbamoyl-2-(4-(2-(pyrrolidin-1-ylmethyl)-4-(trifluoromethyl)phenoxy)-phenyl)pyrimidin-4-yl)oxy)propanoic acid]	9.72
NC(=O)c1cc(N[C@H]2CCNC2=O)nc(-c2ccc(CC3CCC(C(F)(F)F)CN3)cc2)n1 (stereo partly drawn) [Cpd No. 185, 6-(((S)-2-oxopyrrolidin-3-yl)amino)-2-(4-((5-(trifluoromethyl)piperidin-2-yl)methyl)phenyl)pyrimidine-4-carboxamide]	8.69
NC(=O)c1cc(N[C@H]2CCNC2=O)nc(-c2ccc(Oc3ccc(F)cc3)cc2CN2CCOCC2)n1 [Cpd No. 187, (S)-2-(4-(4-fluorophenoxy)-2-(morpholinomethyl)phenyl)-6-((2-oxopyrrolidin-3-yl)amino)-pyrimidine-4-carboxamide]	5.67
CC1CN1Cc1cc(Oc2ccc(F)cc2)ccc1-c1nc(N[C@H]2CCNC2=O)cc(C(N)=O)n1 (stereo partly drawn) [Cpd No. 188, 2-(4-(4-fluorophenoxy)-2-((2-methylaziridin-1-yl)methyl)-phenyl)-6-(((S)-2-oxopyrrolidin-3-yl)amino)pyrimidine-4-carboxamide]	4.64
NC(=O)c1cc(N[C@H]2CCNC2=O)nc(-c2ccc(C(O)c3ccc(C(F)(F)F)cn3)cc2)n1 (some centres unmarked) [Cpd No. 189]	> 20
NC(=O)c1cc(N[C@H]2CCNC2=O)nc(N2[C@@H]3CC[C@H]2C[C@@H](Oc2ccc(C(F)(F)F)cc2CN2CCCC2)C3)n1 [Cpd No. 191, 6-(((S)-2-oxopyrrolidin-3-yl)amino)-2-((1R,3S,5S)-3-(2-(pyrrolidin-1-ylmethyl)-4-(trifluoromethyl)phenoxy)-8-azabicyclo[3.2.1]octan-8-yl)pyrimidine-4-carboxamide]	1.97
NC(=O)c1cc(N[C@H]2CCNC2=O)nc(-c2ccc(Oc3ccc(C(F)(F)F)cc3CN3CCOCC3)cc2)n1 [Cpd No. 192, (S)-2-(4-(2-(morpholinomethyl)-4-(trifluoromethyl)phenoxy)-phenyl)-6-((2-oxopyrrolidin-3-yl)amino)pyrimidine-4-carboxamide]	1.34
CN1CCN(Cc2cc(C(F)(F)F)ccc2Oc2ccc(-c3nc(N[C@H]4CCNC4=O)cc(C(N)=O)n3)cc2)CC1 [Cpd No. 193]	> 20
NC(=O)c1cc(N[C@H]2CCNC2=O)nc(-c2ccc(Oc3ccc(C(F)(F)F)cc3CN3CCCCC3)cc2)n1 [Cpd No. 194, (S)-6-((2-oxopyrrolidin-3-yl)amino)-2-(4-(2-(piperidin-1-ylmethyl)-4-(trifluoromethyl)-phenoxy)phenyl)pyrimidine-4-carboxamide]	2.18
C[C@H](Nc1cc(C(N)=O)nc(-c2ccc(Oc3cnc(C4CC4)cn3)cc2)n1)C(N)=O [Cpd No. 195, (S)-6-((1-amino-1-oxopropan-2-yl)amino)-2-(4-((5-cyclopropyl-pyrazin-2-yl)oxy)phenyl)-pyrimidine-4-carboxamide]	> 20
Cc1cnc(Oc2ccc(-c3nc(N[C@@H](C)C(N)=O)cc(C(N)=O)n3)cc2)cn1 [Cpd No. 196, (S)-6-((1-amino-1-oxopropan-2-yl)amino)-2-(4-((5-methyl-pyrazin-2-yl)oxy)phenyl)-pyrimidine-4-carboxamide]	> 20
COc1cnc(Oc2ccc(-c3nc(N[C@H]4CCNC4=O)cc(C(N)=O)n3)cc2)cn1 [Cpd No. 197, (S)-2-(4-((5-methoxypyrazin-2-yl)oxy)phenyl)-6-((2-oxopyrrolidin-3-yl)amino)-pyrimidine-4-carboxamide]	5.07

Structure (SMILES)	IC50 [µM]
COc1cnc(Oc2ccc(-c3nc(N[C@@H](C)C(N)=O)cc(C(N)=O)n3)cc2)cn1 [Cpd No. 198, (S)-6-((1-amino-1-oxopropan-2-yl)amino)-2-(4-((5-methoxy-pyrazin-2-yl)oxy)phenyl)-pyrimidine-4-carboxamide]	> 20
Cc1cnc(Oc2ccc(-c3nc(N[C@H]4CCNC4=O)cc(C(N)=O)n3)cc2)cn1 [Cpd No. 199, (S)-2-(4-((5-methylpyrazin-2-yl)oxy)phenyl)-6-((2-oxopyrrolidin-3-yl)amino)pyrimidine-4-carboxamide]	4.67
NC(=O)c1cc(N[C@H]2CCNC2=O)nc(-c2ccc(Oc3ccc(C(F)(F)F)cc3)cc2CN2CCOCC2)n1 [Cpd No. 200, (S)-2-(2-(morpholinomethyl)-4-(4-(trifluoromethyl)phenoxy)-phenyl)-6-((2-oxopyrrolidin-3-yl)amino)pyrimidine-4-carboxamide]	0.28
CN(C)Cc1cc(Oc2ccc(C(F)(F)F)cc2)ccc1-c1nc(N[C@H]2CCNC2=O)cc(C(N)=O)n1 [Cpd No. 201, (S)-2-(2-((dimethylamino)-methyl)-4-(4-(trifluoromethyl)-phenoxy)phenyl)-6-((2-oxopyrrolidin-3-yl)-amino)pyrimidine-4-carboxamide]	> 20
NC(=O)c1cc(N[C@H]2CCNC2=O)nc(-c2ccc(Oc3ccc(C(F)(F)F)cc3)cc2CN2CCCCC2)n1 [Cpd No. 202, (S)-6-((2-oxopyrrolidin-3-yl)amino)-2-(2-(piperidin-1-ylmethyl)-4-(4-(trifluoromethyl)-phenoxy)phenyl)pyrimidine-4-carboxamide]	0.72
CN1CCN(Cc2cc(Oc3ccc(C(F)(F)F)cc3)ccc2-c2nc(N[C@H]3CCNC3=O)cc(C(N)=O)n2)CC1 [Cpd No. 203, (S)-2-(2-((4-methylpiperazin-1-yl)methyl)-4-(4-(trifluoro-methyl)phenoxy)-phenyl)-6-((2-oxopyrrolidin-3-yl)amino)-pyrimidine-4-carboxamide]	0.76
N#Cc1cc(C(F)(F)F)ccc1O[C@H]1C[C@H]2CC[C@@H](C1)N2c1nc(N[C@H]2CCNC2=O)cc(C(N)=O)n1 [Cpd No. 204, 2-((1R,3S,5S)-3-(2-cyano-4-(trifluoromethyl)phenoxy)-8-azabicyclo-[3.2.1]octan-8-yl)-6-(((S)-2-oxopyrrolidin-3-yl)amino)pyrimidine-4-carboxamide]	> 20
NC(=O)c1cc(N[C@H]2CCNC2=O)nc(-c2ccc(Oc3ccc(C(F)(F)F)c(C4=CCNCC4)c3)cc2)n1 [Cpd No. 205, (S)-6-((2-oxopyrrolidin-3-yl)amino)-2-(4-(3-(1,2,3,6-tetrahydropyridin-4-yl)-4-(trifluoromethyl)phenoxy)phenyl)pyrimidine-4-carboxamide]	> 20
NC(=O)c1cc(N[C@H]2CCNC2=O)nc(-c2ccc(Oc3ccc(C(F)(F)F)cc3C3=CCNCC3)cc2)n1 [Cpd No. 206, (S)-6-((2-oxopyrrolidin-3-yl)amino)-2-(4-(2-(1,2,3,6-tetrahydropyridin-4-yl)-4-(trifluoromethyl)phenoxy)phenyl)pyrimidine-4-carboxamide]	5.28
CN1CC=C(c2cc(C(F)(F)F)ccc2Oc2ccc(-c3nc(N[C@H]4CCNC4=O)cc(C(N)=O)n3)cc2)CC1 [Cpd No. 207, (S)-2-(4-(2-(1-methyl-1,2,3,6-tetrahydropyridin-4-yl)-4-(trifluoromethyl)phenoxy)phenyl)-6-((2-oxopyrrolidin-3-yl)amino)pyrimidine-4-carboxamide]	4.7
CCN(CC)Cc1cc(C(F)(F)F)ccc1Oc1ccc(-c2nc(N[C@H]3CCNC3=O)cc(C(N)=O)n2)cc1 [Cpd No. 208, (S)-2-(4-(2-((diethylamino)-methyl)-4-(trifluoromethyl)-phenoxy)phenyl)-6-((2-oxopyrrolidin-3-yl)amino)pyrimidine-4-carboxamide]	0.75
NC(=O)c1cc(N[C@H]2CCNC2=O)nc(-c2ccc(Oc3ccc(C(F)(F)F)cc3)c(N3CCCCC3)c2)n1 [Cpd No. 209, (S)-6-((2-oxopyrrolidin-3-yl)amino)-2-(3-(piperidin-1-yl)-4-(4-(trifluoromethyl)phenoxy)-phenyl)pyrimidine-4-carboxamide]	> 20
CN1CCN(c2cc(Oc3ccc(-c4nc(N[C@H]5CCNC5=O)cc(C(N)=O)n4)cc3)ccc2C(F)(F)F)CC1 [Cpd No. 210, (S)-2-(4-(3-(4-methylpiperazin-1-yl)-4-(trifluoromethyl)phenoxy)phenyl)-6-((2-oxopyrrolidin-3-yl)amino)pyrimidine-4-carboxamide]	1.94
CN1CCN(c2cc(C(F)(F)F)ccc2Oc2ccc(-c3nc(N[C@H]4CCNC4=O)cc(C(N)=O)n3)cc2)CC1 [Cpd No. 211, (S)-2-(4-(2-(4-methylpiperazin-1-yl)-4-(trifluoromethyl)-phenoxy)phenyl)-6-((2-oxopyrrolidin-3-yl)amino)-pyrimidine-4-carboxamide]	4.16
NC(=O)c1cc(N[C@H]2CCNC2=O)nc(-c2ccc(Nc3ccc(F)cc3)c(N)c2)n1 [Cpd No. 212, (S)-2-(3-amino-4-((4-fluoro-phenyl)amino)phenyl)-6-((2-oxopyrrolidin-3-yl)amino)-pyrimidine-4-carboxamide]	4.73
NC(=O)c1cc(O[C@H]2CCNC2=O)nc(C2CCC(Oc3ccc(C(F)(F)F)cn3)CC2)n1 (some centres unmarked) [Cpd No. 213]	0.69

Source: patent US10196364B2, “Pyrimidine carboxamides as sodium channel blockers” (Purdue Pharma L.P., priority 2013, dated 2019)
